Drawing on patent US20210317134A1, “UBIQUITIN-SPECIFIC-PROCESSING PROTEASE 7 (USP7) MODULATORS AND USES THEREOF” (RAPT THERAPEUTICS, INC., priority 2019, published 2021), this text covers IC50 for 32 compounds.

The IC50 is the concentration that gives 50% inhibition.

For this assay, the target named is USP7 (Homo sapiens, UniProt Q93009). Kind of assay: USP7 inhibitory potency (Table 1). Type of assay: biochemical.
USP7, sequence (Q93009 whole entry): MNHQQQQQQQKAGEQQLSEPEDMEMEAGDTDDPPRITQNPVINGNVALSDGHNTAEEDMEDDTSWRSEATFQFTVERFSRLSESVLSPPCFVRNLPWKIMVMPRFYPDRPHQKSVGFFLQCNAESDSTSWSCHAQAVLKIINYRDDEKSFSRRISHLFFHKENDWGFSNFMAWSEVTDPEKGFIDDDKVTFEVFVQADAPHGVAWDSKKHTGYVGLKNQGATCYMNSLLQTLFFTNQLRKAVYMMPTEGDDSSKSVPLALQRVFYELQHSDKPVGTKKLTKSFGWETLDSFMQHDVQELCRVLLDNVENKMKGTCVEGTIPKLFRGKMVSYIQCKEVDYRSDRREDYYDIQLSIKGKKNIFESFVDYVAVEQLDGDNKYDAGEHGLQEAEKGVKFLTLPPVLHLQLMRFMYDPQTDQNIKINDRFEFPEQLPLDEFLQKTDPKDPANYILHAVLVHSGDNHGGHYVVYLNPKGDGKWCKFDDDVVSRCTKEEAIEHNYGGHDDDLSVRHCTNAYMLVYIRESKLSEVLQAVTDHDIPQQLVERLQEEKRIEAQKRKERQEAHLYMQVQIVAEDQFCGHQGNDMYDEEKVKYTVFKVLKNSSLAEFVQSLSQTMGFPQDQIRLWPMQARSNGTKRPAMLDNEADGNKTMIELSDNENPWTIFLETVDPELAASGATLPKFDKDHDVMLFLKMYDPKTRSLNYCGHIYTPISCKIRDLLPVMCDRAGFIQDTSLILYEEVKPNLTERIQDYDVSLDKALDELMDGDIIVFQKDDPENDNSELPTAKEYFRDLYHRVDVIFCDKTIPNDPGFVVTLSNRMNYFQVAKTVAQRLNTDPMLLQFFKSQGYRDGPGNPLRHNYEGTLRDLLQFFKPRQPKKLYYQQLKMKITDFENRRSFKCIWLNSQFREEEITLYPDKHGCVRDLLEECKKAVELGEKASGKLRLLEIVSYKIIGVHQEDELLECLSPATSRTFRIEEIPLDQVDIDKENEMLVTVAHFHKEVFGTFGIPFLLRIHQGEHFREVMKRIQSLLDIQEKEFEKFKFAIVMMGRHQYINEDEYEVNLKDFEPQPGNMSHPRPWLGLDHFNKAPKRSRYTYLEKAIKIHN
In the case of `O=C(C1Cc2cc(Cl)c(F)c(-c3ccnc4[nH]ccc34)c2O1)N1CCNCC1` (centres unmarked), the IC50 lay within 10 to 30 µM. With `C[C@H](O)Cc1cc2c(-c3cc(Cl)cc4c3OC(C(=O)N3CCNCC3)C4)ccnc2[nH]1` (some centres unmarked) the figure was 1 to 10 µM; with `Cc1cnccc1-c1cc(Cl)cc2c1OC(C(=O)N1CCNCC1)C2` (centres unmarked), 10 to 30 µM; with `N#Cc1cc2c(c(-c3ccnc4cc(CO)sc34)c1)OC(C(=O)N1CCNCC1)C2` (stereo in doubt) [(R)-7-(2-(hydroxymethyl)thieno[3,2-b]pyridin-7-yl)-2-(piperazine-1-carbonyl)-2,3-dihydrobenzofuran-5-carbonitrile], 1 to 10 µM.

In turn, `O=C(C1Cc2cc(Cl)cc(-c3ccnc4[nH]ccc34)c2O1)N1CCC(N2CCCCC2)CC1` (centres unmarked) [1,4′-bipiperidin-1′-yl(5-chloro-7-(1H-pyrrolo[2,3-b]pyridin-4-yl)-2,3-dihydrobenzofuran-2-yl)methanone] registered a concentration for half-maximal inhibition (IC50) of 1 to 10 µM. Under `CCC(O)c1cc2ncnc(-c3cc(Cl)cc4c3O[C@@H](c3c5c(nn3C)CCC(N(C)C)C5)C4)c2s1` (stereo partly drawn) [1-(4-((2R)-5-chloro-2-(5-(dimethylamino)-2-methyl-4,5,6,7-tetrahydro-2H-indazol-3-yl)-2,3-dihydrobenzofuran-7-yl)thieno[3,2-d]pyrimidin-6-yl)propan-1-ol] stands 1 to 10 µM; under `CCC(O)c1cc2ncnc(-c3cc(Cl)cc4c3O[C@@H](c3c5c(nn3C)CCNC5)C4)c2s1` (stereo partly drawn) [1-(4-((R)-5-chloro-2-(2-methyl-4,5,6,7-tetrahydro-2H-pyrazolo[4,3-c]pyridin-3-yl)-2,3-dihydrobenzofuran-7-yl)thieno[3,2-d]pyrimidin-6-yl)propan-1-ol], less than 1 µM. Under `CCC(O)c1cc2ncnc(-c3cc(Cl)cc4c3O[C@@H](c3onc5c3CNCC5)C4)c2o1` (stereo partly drawn) [1-(4-((R)-5-chloro-2-(4,5,6,7-tetrahydroisoxazolo[4,3-c]pyridin-3-yl)-2,3-dihydrobenzofuran-7-yl)furo[3,2-d]pyrimidin-6-yl)propan-1-ol] stands 1 to 10 µM. Under `CC(O)c1ccc2c(-c3cc(Cl)cc4c3O[C@@H](c3onc5c3CNCC5)C4)ccnc2c1` (stereo partly drawn) [1-(4-((R)-5-chloro-2-(4,5,6,7-tetrahydroisoxazolo[4,3-c]pyridin-3-yl)-2,3-dihydrobenzofuran-7-yl)quinolin-7-yl)ethan-1-ol] stands less than 1 µM. With `CCC(O)c1ccc2c(-c3cc(Cl)cc4c3O[C@@H](c3onc5c3CNCC5)C4)ccnc2c1` (stereo partly drawn) [1-(4-((R)-5-chloro-2-(4,5,6,7-tetrahydroisoxazolo[4,3-c]pyridin-3-yl)-2,3-dihydrobenzofuran-7-yl)quinolin-7-yl)propan-1-ol], the IC50 was in the range of 1 to 10 µM. Take `CCC(O)c1cc2ncnc(-c3cc(Cl)cc4c3O[C@@H](c3ocnc3CNCC(F)(F)F)C4)c2s1` (stereo partly drawn) [1-(4-((R)-5-chloro-2-(4-(((2,2,2-trifluoroethyl)amino)methyl)oxazol-5-yl)-2,3-dihydrobenzofuran-7-yl)thieno[3,2-d]pyrimidin-6-yl)propan-1-ol]: the IC50 was in the range of 10 to 30 µM.

As to `CCC(O)c1cc2nccc(-c3cc(Cl)cc4c3OC(c3onc5c3CNCC5)C4)n2n1` (centres unmarked) [1-(7-(5-chloro-2-(4,5,6,7-tetrahydroisoxazolo[4,3-c]pyridin-3-yl)-2,3-dihydrobenzofuran-7-yl)pyrazolo[1,5-a]pyrimidin-2-yl)propan-1-ol], the half-maximal inhibitory concentration (IC50) was in the range of 1 to 10 µM.

Compound `CCC(O)c1cc2nccc(-c3cc(Cl)cc4c3OC(c3onc5c3CN(C(C)C)CC5)C4)c2s1` (centres unmarked) [1-(7-(5-chloro-2-(5-isopropyl-4,5,6,7-tetrahydroisoxazolo[4,3-c]pyridin-3-yl)-2,3-dihydrobenzofuran-7-yl)thieno[3,2-b]pyridin-2-yl)propan-1-ol] came in with an IC50 of less than 1 µM. Under `CCC(O)c1cc2nccc(-c3cc(Cl)cc4c3OC(CN3CCNCC3)C4)c2s1` (centres unmarked) [1-(7-(5-chloro-2-(piperazin-1-ylmethyl)-2,3-dihydrobenzofuran-7-yl)thieno[3,2-b]pyridin-2-yl)propan-1-ol] stands 10 to 30 µM; under `CCC(O)c1cc2nccc(-c3cc(Cl)cc4c3O[C@@H](c3nn(C)c5c3CNCC5)C4)c2s1` (stereo partly drawn) [1-(7-((R)-5-chloro-2-(1-methyl-4,5,6,7-tetrahydro-1H-pyrazolo[4,3-c]pyridin-3-yl)-2,3-dihydrobenzofuran-7-yl)thieno[3,2-b]pyridin-2-yl)propan-1-ol], less than 1 µM. `CCC(O)c1cc2nccc(-c3cc(Cl)cc4c3O[C@@H](c3c5c(nn3C)CCNC5)C4)c2s1` (stereo partly drawn) [1-(7-((R)-5-chloro-2-(2-methyl-4,5,6,7-tetrahydro-2H-pyrazolo[4,3-c]pyridin-3-yl)-2,3-dihydrobenzofuran-7-yl)thieno[3,2-b]pyridin-2-yl)propan-1-ol] displayed a 50% inhibitory concentration (IC50) of less than 1 µM.

`CCC(O)c1cc2nccc(-c3cc(Cl)cc4c3O[C@@H](c3[nH]nc5c3CNCC5)C4)c2s1` (stereo partly drawn) [1-(7-((R)-5-chloro-2-(4,5,6,7-tetrahydro-2H-pyrazolo[4,3-c]pyridin-3-yl)-2,3-dihydrobenzofuran-7-yl)thieno[3,2-b]pyridin-2-yl)propan-1-ol] gave an IC50 of less than 1 µM.

On to `CC(C)CC(O)c1cc2nccc(-c3cc(Cl)cc4c3O[C@@H](c3onc5c3CNCC5)C4)c2s1` (stereo partly drawn) [1-(7-((R)-5-chloro-2-(4,5,6,7-tetrahydroisoxazolo[4,3-c]pyridin-3-yl)-2,3-dihydrobenzofuran-7-yl)thieno[3,2-b]pyridin-2-yl)-3-methylbutan-1-ol], for which the IC50 was less than 1 µM. `CCCC(O)c1cc2nccc(-c3cc(Cl)cc4c3O[C@@H](c3onc5c3CNCC5)C4)c2s1` (stereo partly drawn) [1-(7-((R)-5-chloro-2-(4,5,6,7-tetrahydroisoxazolo[4,3-c]pyridin-3-yl)-2,3-dihydrobenzofuran-7-yl)thieno[3,2-b]pyridin-2-yl)butan-1-ol]: the IC50 is less than 1 µM.

`CCC(N)c1cc2nccc(-c3cc(Cl)cc4c3O[C@@H](c3onc5c3CNCC5)C4)c2s1` (stereo partly drawn) [1-(7-((R)-5-chloro-2-(4,5,6,7-tetrahydroisoxazolo[4,3-c]pyridin-3-yl)-2,3-dihydrobenzofuran-7-yl)thieno[3,2-b]pyridin-2-yl)propan-1-amine] came in with an IC50 of 1 to 10 µM.

`CCC(O)c1cc2nccc(-c3cc(Cl)cc4c3O[C@@H](c3ocnc3CNCCO)C4)c2s1` (stereo partly drawn) [1-(7-((R)-5-chloro-2-(4-(((2-hydroxyethyl)amino)methyl)oxazol-5-yl)-2,3-dihydrobenzofuran-7-yl)thieno[3,2-b]pyridin-2-yl)propan-1-ol]: the 50% inhibitory concentration (IC50) was less than 1 µM.

`CCC(O)c1cc2nccc(-c3cc(Cl)cc4c3O[C@@H](c3ocnc3CN(C)C)C4)c2s1` (stereo partly drawn) [1-(7-((R)-5-chloro-2-(4-((dimethylamino)methyl)oxazol-5-yl)-2,3-dihydrobenzofuran-7-yl)thieno[3,2-b]pyridin-2-yl)propan-1-ol] registered a half-inhibitory concentration (IC50) of less than 1 µM. With `CCC(O)c1cc2nccc(-c3cc(Cl)cc4c3O[C@@H](c3ocnc3CNC)C4)c2s1` (stereo partly drawn) [1-(7-((R)-5-chloro-2-(4-((methylamino)methyl)oxazol-5-yl)-2,3-dihydrobenzofuran-7-yl)thieno[3,2-b]pyridin-2-yl)propan-1-ol] the figure was less than 1 µM; with `CCC(O)c1cc2nccc(-c3cc(Cl)cc4c3O[C@@H](c3ocnc3CN3CCOCC3)C4)c2s1` (stereo partly drawn) [1-(7-((R)-5-chloro-2-(4-(morpholinomethyl)oxazol-5-yl)-2,3-dihydrobenzofuran-7-yl)thieno[3,2-b]pyridin-2-yl)propan-1-ol], 1 to 10 µM; with `CCC(O)c1cc2nccc(-c3cc(Cl)cc4c3O[C@@H](c3ocnc3CN3CCNCC3)C4)c2s1` (stereo partly drawn) [1-(7-((R)-5-chloro-2-(4-(piperazin-1-ylmethyl)oxazol-5-yl)-2,3-dihydrobenzofuran-7-yl)thieno[3,2-b]pyridin-2-yl)propan-1-ol], less than 1 µM. Under `CCC(O)c1cc2nccc(-c3cc(Cl)cc4c3O[C@@H](c3ocnc3CN3CCCC3)C4)c2s1` (stereo partly drawn) [1-(7-((R)-5-chloro-2-(4-(pyrrolidin-1-ylmethyl)oxazol-5-yl)-2,3-dihydrobenzofuran-7-yl)thieno[3,2-b]pyridin-2-yl)propan-1-ol] stands less than 1 µM; under `CCC(O)c1cc2nccc(-c3cc(Cl)cc4c3O[C@@H](c3onc5c3CN(CC)CC5)C4)c2s1` (stereo partly drawn) [1-(7-((R)-5-chloro-2-(5-ethyl-4,5,6,7-tetrahydroisoxazolo[4,3-c]pyridin-3-yl)-2,3-dihydrobenzofuran-7-yl)thieno[3,2-b]pyridin-2-yl)propan-1-ol], less than 1 µM; under `CCC(O)c1cc2nccc(-c3cc(Cl)cc4c3O[C@@H](c3onc5c3CNCC5)CC4)c2s1` (stereo partly drawn) [1-(7-((R)-6-chloro-2-(4,5,6,7-tetrahydroisoxazolo[4,3-c]pyridin-3-yl)chroman-8-yl)thieno[3,2-b]pyridin-2-yl)propan-1-ol], less than 1 µM.

`O=C([C@H]1Cc2cc(Cl)cc(-c3ccnc4c3CC(CN3C(=O)CCC3=O)C4)c2O1)N1CCNCC1` (stereo partly drawn) [1-((4-((R)-5-chloro-2-(piperazine-1-carbonyl)-2,3-dihydrobenzofuran-7-yl)-6,7-dihydro-5H-cyclopenta[b]pyridin-6-yl)methyl)pyrrolidine-2,5-dione] gave a 50% inhibitory concentration (IC50) of less than 1 µM. With `O=C1CCC(=O)N1Cc1cc2nccc(-c3cc(Cl)cc4c3O[C@@H](c3onc5c3CC(N3CCC3)CC5)C4)c2s1` (stereo partly drawn) [1-((7-((2R)-2-(5-(azetidin-1-yl)-4,5,6,7-tetrahydrobenzo[c]isoxazol-3-yl)-5-chloro-2,3-dihydrobenzofuran-7-yl)thieno[3,2-b]pyridin-2-yl)methyl)pyrrolidine-2,5-dione] the figure was less than 1 µM; with `CC1CC(=O)N(Cc2cc3nccc(-c4cc(Cl)cc5c4O[C@@H](C(=O)N4CCNCC4)C5)c3s2)C1=O` (stereo partly drawn) [1-((7-((R)-5-chloro-2-(piperazine-1-carbonyl)-2,3-dihydrobenzofuran-7-yl)thieno[3,2-b]pyridin-2-yl)methyl)-3-methylpyrrolidine-2,5-dione], less than 1 µM. With `CC1CC(=O)N(Cc2cc3nccc(-c4cc(Cl)cc5c4O[C@@H](C(=O)N4CCNCC4)C5)c3s2)C1` (stereo partly drawn) [1-((7-((R)-5-chloro-2-(piperazine-1-carbonyl)-2,3-dihydrobenzofuran-7-yl)thieno[3,2-b]pyridin-2-yl)methyl)-4-methylpyrrolidin-2-one] the figure was less than 1 µM.
